Measured values from patent US20150246938A1, “NOVEL OLEFIN DERIVATIVE” (SHIONOGI & CO., LTD., priority 2011, published 2015).

target: T1, recombinant human ACC2 (Homo sapiens, UniProt O00763); experiment: Measurement of inhibitory activity on human ACC2 (MALDI-TOF MS, acetyl CoA to malonyl CoA conversion); format: biochemical; settings: not given
T1 construct: a cDNA encoding human ACC2 (27-2458) was cloned from human kidney cDNA library (Clontech); His-tag (N); made in house; host or cells: Sf-9 insect cells (Bac-to-Bac baculovirus)
T1 sequence (O00763 27-2458): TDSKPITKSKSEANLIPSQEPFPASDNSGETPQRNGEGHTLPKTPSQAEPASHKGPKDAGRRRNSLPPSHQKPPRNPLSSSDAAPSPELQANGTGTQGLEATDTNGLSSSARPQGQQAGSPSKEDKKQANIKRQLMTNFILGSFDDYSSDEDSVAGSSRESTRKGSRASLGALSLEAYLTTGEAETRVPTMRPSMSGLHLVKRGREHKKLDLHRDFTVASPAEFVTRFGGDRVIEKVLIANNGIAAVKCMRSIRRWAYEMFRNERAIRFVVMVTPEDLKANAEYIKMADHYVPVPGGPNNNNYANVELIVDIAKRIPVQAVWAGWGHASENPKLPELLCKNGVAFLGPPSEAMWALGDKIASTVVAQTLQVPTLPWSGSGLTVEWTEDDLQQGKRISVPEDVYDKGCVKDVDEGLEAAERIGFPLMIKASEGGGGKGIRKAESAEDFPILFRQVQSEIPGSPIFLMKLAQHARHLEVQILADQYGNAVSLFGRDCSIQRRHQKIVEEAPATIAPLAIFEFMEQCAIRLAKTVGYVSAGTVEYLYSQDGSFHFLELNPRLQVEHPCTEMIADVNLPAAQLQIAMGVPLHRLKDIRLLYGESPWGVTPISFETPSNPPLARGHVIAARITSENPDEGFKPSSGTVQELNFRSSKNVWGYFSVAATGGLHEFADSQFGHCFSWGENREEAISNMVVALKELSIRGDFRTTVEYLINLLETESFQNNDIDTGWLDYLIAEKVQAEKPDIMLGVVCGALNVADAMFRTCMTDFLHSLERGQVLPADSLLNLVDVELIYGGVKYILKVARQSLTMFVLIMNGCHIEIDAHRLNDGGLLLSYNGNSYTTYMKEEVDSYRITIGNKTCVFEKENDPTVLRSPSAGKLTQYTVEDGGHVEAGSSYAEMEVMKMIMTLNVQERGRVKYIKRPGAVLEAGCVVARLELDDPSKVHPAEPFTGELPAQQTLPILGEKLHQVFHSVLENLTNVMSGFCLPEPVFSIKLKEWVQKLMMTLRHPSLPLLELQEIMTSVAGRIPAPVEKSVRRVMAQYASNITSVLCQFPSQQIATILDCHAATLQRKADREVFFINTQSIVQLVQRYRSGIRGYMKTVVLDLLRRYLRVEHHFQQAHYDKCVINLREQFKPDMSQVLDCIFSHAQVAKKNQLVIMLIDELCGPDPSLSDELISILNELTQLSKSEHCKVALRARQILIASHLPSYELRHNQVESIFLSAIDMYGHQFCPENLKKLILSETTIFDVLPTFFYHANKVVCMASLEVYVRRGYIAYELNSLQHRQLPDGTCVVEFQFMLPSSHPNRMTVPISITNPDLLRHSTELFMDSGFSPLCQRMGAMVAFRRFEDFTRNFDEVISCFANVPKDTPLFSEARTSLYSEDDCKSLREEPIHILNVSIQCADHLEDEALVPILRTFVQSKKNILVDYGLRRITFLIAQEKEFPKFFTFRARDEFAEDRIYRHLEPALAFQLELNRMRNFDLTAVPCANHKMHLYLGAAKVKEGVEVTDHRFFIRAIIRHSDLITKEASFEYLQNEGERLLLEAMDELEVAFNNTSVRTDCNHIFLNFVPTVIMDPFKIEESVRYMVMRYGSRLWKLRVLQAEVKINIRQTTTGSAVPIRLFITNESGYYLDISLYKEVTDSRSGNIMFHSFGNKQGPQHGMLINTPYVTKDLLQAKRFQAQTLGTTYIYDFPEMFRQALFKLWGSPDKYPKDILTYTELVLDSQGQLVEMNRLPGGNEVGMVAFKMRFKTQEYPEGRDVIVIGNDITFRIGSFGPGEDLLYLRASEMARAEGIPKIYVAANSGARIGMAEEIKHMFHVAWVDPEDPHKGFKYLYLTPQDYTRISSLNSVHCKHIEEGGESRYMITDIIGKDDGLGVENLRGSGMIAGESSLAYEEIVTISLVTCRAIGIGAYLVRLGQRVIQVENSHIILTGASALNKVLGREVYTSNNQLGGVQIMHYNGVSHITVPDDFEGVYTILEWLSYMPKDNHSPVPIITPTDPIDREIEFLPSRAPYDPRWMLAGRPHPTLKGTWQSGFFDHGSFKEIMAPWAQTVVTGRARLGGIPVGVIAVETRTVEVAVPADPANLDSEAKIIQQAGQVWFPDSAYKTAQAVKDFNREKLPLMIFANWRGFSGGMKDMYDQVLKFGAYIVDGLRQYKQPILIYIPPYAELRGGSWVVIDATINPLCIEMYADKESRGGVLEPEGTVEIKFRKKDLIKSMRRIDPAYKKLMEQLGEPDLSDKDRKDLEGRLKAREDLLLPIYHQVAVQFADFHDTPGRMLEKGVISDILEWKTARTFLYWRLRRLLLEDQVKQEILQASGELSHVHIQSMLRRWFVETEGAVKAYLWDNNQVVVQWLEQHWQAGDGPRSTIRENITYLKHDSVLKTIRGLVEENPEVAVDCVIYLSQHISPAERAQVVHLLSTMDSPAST

IC50 [µM]	Structure (SMILES)
0.2	CC(=O)N[C@@H](C)/C=C/c1cnc(Oc2ccc(C(C)(C)C(F)(F)F)cc2Cl)nc1 [Compound I-427]
0.14	CC(=O)N[C@@H](C)/C=C/c1ccc(Oc2ccc3sc(C)nc3c2)nc1 [Compound I-424]
0.4	CCCc1ccc(Oc2ccc(/C=C/[C@H](C)NC(=O)CNC(=O)OC(C)(C)C)cn2)c(Cl)c1 [Compound I-386]
0.28	CCCc1ccc(Oc2ccc(/C=C/[C@H](C)NC(=O)CO)cn2)c(Cl)c1 [Compound I-384]
1.1	CC(=O)N[C@@H](C)/C=C/n1cc(Oc2ccc(OCC3CC3)cc2Cl)cn1 [Compound I-402]
0.45	CCCc1ccc(Oc2ccc(/C=C/[C@H](C)NC(C)=O)cn2)c(C#N)c1 [Compound I-403]
0.025	CC(=O)N[C@@H](C)/C=C/c1ccc(Oc2ccc(C(C)(C)C(F)(F)F)cc2Cl)nc1 [Compound I-409]

same assay, conditions: inhibition activity on human ACC2, Table 79; read-out: IC50

IC50 [µM]	Structure (SMILES)
0.094	COc1cccc(Oc2ccc(/C=C/[C@H](C)NC(C)=O)cn2)c1Cl [Compound I-29]
0.038	CC(C)S(=O)(=O)NCCCCC(=O)N[C@@H](C)/C=C/c1cnc(Oc2ccc(OCC3CC3)cc2Cl)s1 [Compound I-117]
0.011	CC(=O)N[C@@H](C)/C=C/c1ccc(Oc2ccc(OC3CCC3)cc2Cl)nc1 [Compound I-39]
0.31	CC(=O)N[C@@H](C)/C=C/c1ccc(Oc2ccc(OCC3CC3)cc2Cl)nn1 [Compound I-56]
0.0044	CC(=O)N[C@@H](C)/C=C/c1ccc(Oc2ccc(NCC3CC3)c(Cl)c2)nc1 [Compound I-24]
0.0065	CC(=O)N[C@@H](C)/C=C/c1ccc(Oc2ccc(OCC(C)C)cc2Cl)nc1 [Compound I-36]
0.08	CC(=O)N[C@@H](C)/C=C/c1ccc(Oc2cc(Cl)cc(OCC3CC3)c2)nc1 [Compound I-43]

same assay, conditions: inhibition activity on human ACC2, Table 80; read-out: IC50

IC50 [µM]	Structure (SMILES)
0.038	CCOc1ccc(Oc2ccc(/C=C/[C@H](C)Nc3cc(C)no3)cn2)c(Cl)c1 [Compound I-204]
0.28	CCCOc1ccc(Oc2ncc(/C=C/[C@H](C)NC(=O)c3ccnc(N)c3)s2)c(Cl)c1 [Compound I-163]
0.58	C[C@@H](/C=C/c1cnc(Oc2ccc(OCC3CC3)cc2Cl)s1)NC(=O)c1ccnc(OCC(=O)O)c1 [Compound I-248]
2.3	Cc1nc(C)c(-c2cc(C(=O)N[C@@H](C)/C=C/c3cnc(Oc4ccc(OCC5CC5)cc4Cl)s3)ccn2)s1 [Compound I-138]
0.069	CC(C)ONC(=O)c1cc(C(=O)N[C@@H](C)/C=C/c2cnc(Oc3ccc(OCC4CC4)cc3Cl)s2)ccn1 [Compound I-216]
0.93	COc1cccc(C(=O)N[C@@H](C)/C=C/c2cnc(Oc3ccc(OCC4CC4)cc3Cl)s2)c1 [Compound I-156]
1.6	Cc1cc(N[C@@H](C)/C=C/c2cnn(Cc3ccc(OCC4CC4)cc3Cl)c2)no1 [Compound I-205]
0.85	CCCOc1ccc(Oc2ncc(/C=C/[C@H](C)NC(=O)c3ccncc3F)s2)c(Cl)c1 [Compound I-164]
0.016	C[C@@H](/C=C/c1cnc(Oc2ccc(OCC3CC3)cc2Cl)s1)NC(=O)c1ccnc(OCCN2CCCC2)c1 [Compound I-242]
0.0063	C[C@@H](/C=C/c1cnc(Oc2ccc(OCC3CC3)cc2Cl)s1)NC(=O)c1ccnc(C(=O)NCCO)c1 [Compound I-206]

same assay, conditions: inhibition activity on human ACC2, Table 82; read-out: IC50

IC50 [µM]	Structure (SMILES)
0.052	CC(=O)N[C@@H](C)/C=C/c1ccc(Oc2ccc(-c3ccc(C#N)cc3)cc2Cl)nc1 [Compound I-345]
0.033	CC(=O)N[C@@H](C)/C=C/c1ccc(Oc2ccc(Cl)c(Cl)c2)nc1 [Compound I-338]
0.01	CCOc1ccc(Oc2ccc(/C=C(\F)C(C)NC(C)=O)cn2)c(Cl)c1 (centres unmarked) [Compound I-365]
0.015	CC(=O)N[C@@H](C)/C=C/c1cnc(Oc2ccc(OCC3CC3)cc2Cl)c(Cl)c1 [Compound I-335]
0.036	CCOc1cc(F)c(Oc2ccc(/C=C/[C@H](C)NC(C)=O)cn2)c(Cl)c1 [Compound I-361]
0.033	CCCc1cc(F)c(Oc2ccc(/C=C/[C@H](C)NC(C)=O)cn2)c(Cl)c1 [Compound I-372]
0.35	CCS(=O)(=O)c1ccc(Oc2ccc(/C=C/[C@H](C)NC(C)=O)cn2)c(Cl)c1 [Compound I-362]

same assay, conditions: inhibition activity on human ACC2, Table 84; read-out: IC50

IC50 [µM]	Structure (SMILES)
0.045	CCOc1ccc(OCc2cccc(/C=C/[C@H](C)NC(C)=O)n2)c(Cl)c1 [Compound I-505]
0.13	C/C=C/c1ccc(Oc2ccc(/C=C/[C@H](C)NC(C)=O)cn2)c(Cl)c1 [Compound I-460]
0.013	CC(=O)N[C@@H](C)/C=C/c1ccc(Oc2ccc3nc(C(F)(F)F)sc3c2)nc1 [Compound I-481]
0.011	CC(=O)N[C@@H](C)/C=C/c1ccc(Oc2cc3sc(C(C)C)nc3cc2Cl)nc1 [Compound I-488]
0.16	CSc1ncc(Oc2ccc(/C=C/[C@H](C)NC(C)=O)cn2)cn1 [Compound I-484]
0.039	CCC(F)(F)c1ccc(Oc2cnc(/C=C/[C@H](C)NC(C)=O)cn2)c(Cl)c1 [Compound I-473]
0.042	CC(=O)N[C@@H](C)/C=C/c1ccc(Oc2ccc(Oc3ccc(C#N)cc3)cc2Cl)nc1 [Compound I-452]
0.068	CC(=O)N[C@@H](C)/C=C/c1ccc(Oc2ccc(Oc3ccccn3)cc2Cl)nc1 [Compound I-463]
0.13	CC(=O)N[C@@H](C)/C=C/c1ccc(Oc2ccc3c(c2)OCCC3)nc1 [Compound I-449]
0.12	CC(=O)N[C@@H](C)/C=C/c1ccc(Oc2ccc(Oc3ccncc3)cc2Cl)nc1 [Compound I-465]
0.019	CC(=O)N[C@@H](C)/C=C/c1ccc(Oc2ccc(Oc3ccccc3)cc2Cl)nc1 [Compound I-462]
0.23	CCCc1cc(Cl)cc(Oc2ccc(/C=C/[C@H](C)NC(C)=O)cn2)c1 [Compound I-470]

same assay, conditions: inhibition activity on human ACC2, untitled table (Table 81); read-out: IC50

IC50 [µM]	Structure (SMILES)
1.9	CC(=O)N[C@@H](C)/C=C/c1ccc(Oc2cncc(OC(C)C)c2)nc1 [Compound I-301]
0.15	CCCc1ncc(Oc2ccc(/C=C/[C@H](C)NC(C)=O)cn2)cc1Cl [Compound I-294]
0.11	COCCOc1ccc(Oc2ccc(/C=C/[C@H](C)NC(C)=O)cn2)c(Cl)c1 [Compound I-296]
1.6	CC(=O)N[C@@H](C)/C=C/c1cnn(Cc2cc(F)c(OCC3CC3)cc2F)c1 [Compound I-292]
0.45	CC(=O)N[C@@H](C)/C=C/c1ccc(Oc2ccc(N3CCCC3=O)cc2Cl)nc1 [Compound I-272]
0.4	COc1cc(Oc2ccc(/C=C/[C@H](C)NC(C)=O)cn2)ccc1F [Compound I-259]
0.099	CC(=O)N[C@@H](C)/C=C/c1ccc(Oc2ccc(Cl)cc2Cl)nc1 [Compound I-273]
0.86	CC(=O)N[C@@H](C)/C=C/c1cnc(Oc2ccc(NC(=O)CC(C)C)c(Cl)c2)nc1 [Compound I-284]
3.2	CC(=O)NC(C)/C(C)=C/c1ccc(Oc2ccc(O)cc2Cl)nc1 (centres unmarked) [Compound I-283]
0.024	CCCc1ccc(Oc2ccc(/C=C/[C@H](C)NC(C)=O)cn2)cc1 [Compound I-306]
0.018	CC(=O)N[C@@H](C)/C=C/c1cnc(Oc2ccc(OCC3CC3)c(Cl)c2)cn1 [Compound I-291]
0.011	CCCc1ccc(Oc2ccc(/C=C/[C@H](C)NC(C)=O)cn2)cc1Cl [Compound I-305]
3.9	CCNC(=O)c1cc(C(=O)N[C@@H](C)/C=C/c2cnn(Cc3c(C)cc(C)cc3C)c2)ccn1 [Compound I-315]
